{"source": "paper PMC6940912", "about": "“Novel Drug-Like Somatostatin Receptor 4 Agonists are Potential Analgesics for Neuropathic Pain” (International Journal of Molecular Sciences, 2019)", "key": {"sst4 receptor": {"molecular_target": "T1, sst4 receptor (Homo sapiens, UniProt P31391)", "T1 construct": "expressed in transfected cells; host or cells: CHO cells", "T1 sequence (P31391 whole entry)": "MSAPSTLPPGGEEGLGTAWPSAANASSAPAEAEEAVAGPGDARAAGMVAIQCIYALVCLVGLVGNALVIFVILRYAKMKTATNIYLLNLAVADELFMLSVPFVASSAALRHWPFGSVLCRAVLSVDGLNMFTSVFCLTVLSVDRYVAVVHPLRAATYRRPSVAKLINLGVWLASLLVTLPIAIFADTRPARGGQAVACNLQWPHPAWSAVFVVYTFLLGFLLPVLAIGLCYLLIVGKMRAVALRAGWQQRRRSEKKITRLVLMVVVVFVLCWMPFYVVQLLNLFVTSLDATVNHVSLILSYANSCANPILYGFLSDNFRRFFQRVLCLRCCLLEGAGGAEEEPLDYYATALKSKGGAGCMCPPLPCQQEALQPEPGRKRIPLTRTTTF", "assay": "sst4 receptor-linked G-protein activation, [35S]GTPγS binding assay on membranes of sst4-expressing CHO cells", "assay_type": "biochemical", "protocol": "Membrane fractions were prepared from CHO cells, which express the sst4 receptor, in Tris–ethylene glycol-bis(2-aminoethyl)tetraacetic acid (Tris–EGTA) buffer (50 mM Tris–HCl (Sigma, St. Louis, MO, USA), 1 mM EGTA (Sigma, St. Louis, MO, USA), 3 mM MgCl2 (Sigma, St. Louis, MO, USA), 100 mM NaCl (Sigma, St. Louis, MO, USA), pH 7.4, 10 μg of protein/sample). The fractions were incubated in the buffer containing 0.05 nM guanosine triphosphate (GTP) (BioChemica International Inc., Melbourne, Florida, USA), labeled on the gamma phosphate group with ^35S ([^35S]GTPγS) (Isotop Institute, Budapest, Hungary) and increasing concentrations (1 nM to 10 µM) of C1, C2, C3 and C4 compounds for 60 min at 30 °C, in the presence of 30 μM guanosine diphosphate (GDP) (Sigma, St. Louis, MO, USA). We determined the nonspecific binding in the presence of 10 μM unlabeled GTPγS and total binding in the absence of test compounds. Samples were filtrated through Whatman GF/B glass fiber filters using 48-well Slot Blot Manifold from Cleaver Scientific (Cleaver Scientific Ltd., Rugby, Warwickshire, United Kingdom). Filters were washed with ice-cold 50 mM Tris–HCl buffer (pH 7.4) and radioactivity was measured in a β-counter (PerkinElmer Inc., Waltham, MA, USA). The test-compound-induced G-protein activation was given as percentage over the specific [^35S]GTPγS binding detected in the absence of agonists.\n(§1) In the sst4 receptor activation assay, all the compounds were dissolved in dimethyl sulfoxide (DMSO) (Szkarabeusz Ltd., Pécs, Hungary). The concentration of the stock solutions was 10 mM and was diluted with distilled water to reach the final concentrations. For the in vivo experiments, 1 mg of the compounds was rubbed dry in a braying mortar, suspended thoroughly in 1 mL 1.25% methylcellulose (MC) (Pharmacy of University of Pécs, Pécs, Hungary) solution and then dissolved in sterile bidistilled water to get a 1000 µg/mL stock solution freshly every experimental day. Most microsuspensions looked opalescent; they were shaken properly, sonicated, and further diluted with 1.25% MC to obtain the 25 µg/mL solution for oral administrations (0.2 mL/10 g body weight for the 500 µg/kg dose). The solutions were shaken and sonicated again directly before use. The vehicle was always 1.25% MC dissolved in sterile bidistilled water."}, "Male NMRI mice": {"system": "Male NMRI mice", "assay": "Partial sciatic nerve ligation-induced chronic traumatic neuropathic mechanical hyperalgesia", "assay_type": "in vivo, mouse", "protocol": "After conditioning and two control mechanonociceptive measurements on 2 consecutive days, mice were anaesthetized by the combination of ketamine (100 mg/kg, i.p.) and xylazine (10 mg/kg, i.p.). Traumatic mononeuropathy was achieved by one-third to one-half part ligation of the right sciatic nerve. Significant decrease in the mechanical threshold develops 7 days after operation. The mechanonociceptive threshold of the plantar surface of the hindpaws was measured by DPA on the 7th postoperative day. The paw withdrawal threshold was obtained in grams (the maximal value was 10 g; ramp time of 4 s). The compounds (500 µg/kg) or the vehicle were administered orally on day 7, one hour before the repeated measurement. The experiment consisted of separate series on 3 consecutive days, and there were 2–3 vehicle-treated control animals in every series. Therefore, each group contained 8 mice.\nas §1\nMale NMRI mice (8–12 weeks old) bred in the Laboratory Animal House of the Department of Pharmacology and Pharmacotherapy of the University of Pecs were kept in standard plastic cages at 24–25 °C, under a 12–12 h light–dark cycle and provided with standard rodent chow and water ad libitum. All experimental procedures complied with the recommendations of the 1998/XXVIII Act of the Hungarian Parliament on Animal Protection and Consideration Decree of Scientific Procedures of Animal Experiments (63/2010) and were approved by the Ethics Committee on Animal Research of Pecs University according to the Ethical Codex of Animal Experiments; license was given (license No. BA1/35/55-50/2017). We made all efforts to minimize the number and suffering of the animals used in this study."}, "Ca2+ channel": {"system": "Ca2+ channel", "assay": "Selectivity profile (Eurofins Cerep), radioligand binding", "details": "1 µM, % inhibition of binding of radiolabeled ligand", "protocol": "(§2) The evaluation was performed by Eurofins Cerep (France). Compound binding was calculated as a % inhibition of the binding of a radioactively labeled ligand specific for each target. Enzyme inhibition effect was calculated as a % inhibition of control enzyme activity. Cellular agonist effect was calculated as a % of control response to a known reference agonist for each target, and cellular antagonist effect was calculated as a % inhibition of control reference agonist response for each target. In each experiment the respective reference compound was tested concurrently with Compound 1 [71, 72, 73, 74, 75, 76, 77, 78]. See in Supplementary Materials."}, "K+ channel hERG": {"molecular_target": "T2, K+ channel hERG (Homo sapiens, UniProt Q12809)", "T2 construct": "Eurofins Cerep (contract assay)", "T2 sequence (Q12809 whole entry)": "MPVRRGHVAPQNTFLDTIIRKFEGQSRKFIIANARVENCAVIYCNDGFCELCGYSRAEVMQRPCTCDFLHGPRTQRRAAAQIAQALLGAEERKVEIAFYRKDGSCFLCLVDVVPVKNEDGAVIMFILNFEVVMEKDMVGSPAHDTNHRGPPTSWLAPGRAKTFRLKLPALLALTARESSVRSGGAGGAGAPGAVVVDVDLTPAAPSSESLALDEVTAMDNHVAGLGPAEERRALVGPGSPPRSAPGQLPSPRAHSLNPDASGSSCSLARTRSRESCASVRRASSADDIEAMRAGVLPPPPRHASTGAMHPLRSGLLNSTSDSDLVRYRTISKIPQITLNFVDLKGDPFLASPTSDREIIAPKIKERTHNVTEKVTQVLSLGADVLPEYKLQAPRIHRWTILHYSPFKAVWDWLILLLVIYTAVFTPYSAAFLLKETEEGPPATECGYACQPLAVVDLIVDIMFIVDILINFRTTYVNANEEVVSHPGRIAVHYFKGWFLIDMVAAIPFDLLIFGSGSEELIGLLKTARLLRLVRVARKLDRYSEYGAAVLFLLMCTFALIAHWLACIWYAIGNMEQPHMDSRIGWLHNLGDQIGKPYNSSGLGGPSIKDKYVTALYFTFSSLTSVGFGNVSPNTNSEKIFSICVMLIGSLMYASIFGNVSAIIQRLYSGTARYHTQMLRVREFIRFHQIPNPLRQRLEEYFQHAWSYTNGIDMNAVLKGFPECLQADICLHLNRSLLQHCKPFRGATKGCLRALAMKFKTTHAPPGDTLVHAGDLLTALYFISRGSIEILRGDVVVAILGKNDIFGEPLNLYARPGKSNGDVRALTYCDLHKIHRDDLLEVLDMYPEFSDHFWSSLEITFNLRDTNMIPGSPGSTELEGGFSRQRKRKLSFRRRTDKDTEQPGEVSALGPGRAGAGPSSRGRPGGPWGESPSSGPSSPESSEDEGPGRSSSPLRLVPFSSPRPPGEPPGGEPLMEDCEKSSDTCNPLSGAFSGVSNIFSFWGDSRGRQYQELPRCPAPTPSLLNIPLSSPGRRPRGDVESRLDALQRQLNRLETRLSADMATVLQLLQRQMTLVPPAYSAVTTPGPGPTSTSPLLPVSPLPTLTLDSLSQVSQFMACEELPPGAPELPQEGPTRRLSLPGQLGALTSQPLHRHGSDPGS", "assay": "Selectivity profile (Eurofins Cerep), radioligand binding", "details": "1 µM, % inhibition of binding of radiolabeled ligand", "protocol": "as §2"}, "CB1": {"molecular_target": "T3, CB1 (Homo sapiens, UniProt P21554)", "T3 construct": "Eurofins Cerep (contract assay)", "T3 sequence (P21554 whole entry)": "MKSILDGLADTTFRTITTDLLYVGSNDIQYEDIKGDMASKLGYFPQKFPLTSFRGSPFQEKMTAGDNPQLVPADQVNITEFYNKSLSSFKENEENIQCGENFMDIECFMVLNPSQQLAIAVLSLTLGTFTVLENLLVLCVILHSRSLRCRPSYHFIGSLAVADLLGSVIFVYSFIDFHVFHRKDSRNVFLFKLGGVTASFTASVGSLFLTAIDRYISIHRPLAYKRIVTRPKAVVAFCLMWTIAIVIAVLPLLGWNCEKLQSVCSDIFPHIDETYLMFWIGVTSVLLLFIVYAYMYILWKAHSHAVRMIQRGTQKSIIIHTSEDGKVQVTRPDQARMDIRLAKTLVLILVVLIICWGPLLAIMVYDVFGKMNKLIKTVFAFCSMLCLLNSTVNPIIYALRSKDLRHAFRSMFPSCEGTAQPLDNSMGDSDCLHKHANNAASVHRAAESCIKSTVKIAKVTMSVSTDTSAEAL", "assay": "Selectivity profile (Eurofins Cerep), cellular agonist/antagonist effect", "assay_type": "cell-based", "details": "1 µM", "protocol": "as §2"}, "D1": {"molecular_target": "T4, D1 (Homo sapiens, UniProt P21728)", "T4 construct": "Eurofins Cerep (contract assay)", "T4 sequence (P21728 whole entry)": "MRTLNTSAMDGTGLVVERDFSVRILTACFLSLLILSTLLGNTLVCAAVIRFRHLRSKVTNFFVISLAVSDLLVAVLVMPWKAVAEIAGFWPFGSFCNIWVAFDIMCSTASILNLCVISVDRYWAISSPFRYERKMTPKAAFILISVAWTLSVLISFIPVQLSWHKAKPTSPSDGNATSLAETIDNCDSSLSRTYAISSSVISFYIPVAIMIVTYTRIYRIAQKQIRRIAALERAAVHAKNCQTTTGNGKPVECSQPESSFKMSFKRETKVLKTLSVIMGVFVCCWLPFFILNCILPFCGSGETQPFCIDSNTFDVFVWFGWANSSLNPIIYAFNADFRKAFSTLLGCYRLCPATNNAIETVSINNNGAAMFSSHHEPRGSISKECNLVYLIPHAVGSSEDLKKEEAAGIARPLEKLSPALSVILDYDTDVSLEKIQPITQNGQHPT", "assay": "Selectivity profile (Eurofins Cerep), cellular agonist/antagonist effect", "assay_type": "cell-based", "details": "1 µM", "protocol": "as §2"}, "D2S": {"molecular_target": "T5, D2S (Homo sapiens, UniProt P14416)", "T5 construct": "Eurofins Cerep (contract assay)", "T5 sequence (P14416 1-414 isoform P14416-2)": "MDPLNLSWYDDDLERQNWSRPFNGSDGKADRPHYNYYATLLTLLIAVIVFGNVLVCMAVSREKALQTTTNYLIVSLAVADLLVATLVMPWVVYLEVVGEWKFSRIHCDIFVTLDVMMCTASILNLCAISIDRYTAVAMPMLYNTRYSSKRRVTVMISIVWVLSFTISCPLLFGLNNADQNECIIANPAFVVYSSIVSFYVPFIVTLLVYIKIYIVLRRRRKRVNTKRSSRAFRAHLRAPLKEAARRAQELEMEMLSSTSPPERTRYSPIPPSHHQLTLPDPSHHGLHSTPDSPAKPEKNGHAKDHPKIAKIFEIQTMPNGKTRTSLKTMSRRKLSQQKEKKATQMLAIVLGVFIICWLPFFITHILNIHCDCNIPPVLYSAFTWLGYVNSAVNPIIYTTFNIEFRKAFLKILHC", "assay": "Selectivity profile (Eurofins Cerep), cellular agonist/antagonist effect", "assay_type": "cell-based", "details": "1 µM", "protocol": "as §2"}, "Mu (MOP)": {"molecular_target": "T6, Mu (MOP) (Homo sapiens, UniProt P35372)", "T6 construct": "Eurofins Cerep (contract assay)", "T6 sequence (P35372 whole entry)": "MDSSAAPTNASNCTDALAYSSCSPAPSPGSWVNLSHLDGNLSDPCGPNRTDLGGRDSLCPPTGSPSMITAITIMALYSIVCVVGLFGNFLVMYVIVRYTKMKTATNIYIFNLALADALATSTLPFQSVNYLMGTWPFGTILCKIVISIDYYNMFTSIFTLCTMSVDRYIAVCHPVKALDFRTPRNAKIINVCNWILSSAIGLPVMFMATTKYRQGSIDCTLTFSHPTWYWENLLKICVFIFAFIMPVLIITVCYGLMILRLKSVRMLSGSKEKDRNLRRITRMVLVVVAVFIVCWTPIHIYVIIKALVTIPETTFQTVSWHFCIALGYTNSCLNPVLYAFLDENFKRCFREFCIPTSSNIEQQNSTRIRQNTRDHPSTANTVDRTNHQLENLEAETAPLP", "assay": "Selectivity profile (Eurofins Cerep), cellular agonist/antagonist effect", "assay_type": "cell-based", "details": "1 µM", "protocol": "as §2"}, "[1]": {"details": "day 7 after sciatic nerve ligation, 500 µg/kg oral, 1 h later, n = 8"}, "[2]": {"details": "day 7 after sciatic nerve ligation, pretreatment self-control, n = 8"}, "[3]": {"details": "% inhibition of control reference agonist response"}, "[4]": {"details": "% of control response to reference agonist"}}, "data": [{"smiles": "c1ccc(CCNc2ncnc3c2ccn3Cc2ccccc2)cc1", "note": "[Compound 1, (7-Benzyl-7H-pyrrolo[2,3-d]pyrimidin-4-yl)-phenethyl-amine]", "values": [{"measurement": "EC50", "setting": "sst4 receptor; 1 nM to 10 µM, n = 3", "result": 37, "unit": "nM"}, {"measurement": "Emax", "setting": "sst4 receptor; [35S]GTPγS binding, mean ± SEM, n = 3, read-out: Maximal activation over the basal activity of the receptor (efficacy)", "result": 218, "unit": "%"}, {"measurement": "Mechanonociceptive threshold of operated limb, 1 h after treatment", "setting": "Male NMRI mice; [1]", "result": "8.53 ± 0.37", "unit": "g"}, {"measurement": "Neuropathic mechanical hyperalgesia, 1 h after treatment", "setting": "Male NMRI mice; [1]", "result": "9.98% ± 3.92"}, {"measurement": "Mechanonociceptive threshold of operated limb, before treatment", "setting": "Male NMRI mice; [2]", "result": "6.51 ± 0.18", "unit": "g"}, {"measurement": "Neuropathic mechanical hyperalgesia, before treatment", "setting": "Male NMRI mice; [2]", "result": "31.22% ± 2.11"}, {"measurement": "Anti-hyperalgesic effect on neuropathic mechanical hyperalgesia", "setting": "Male NMRI mice; traumatic nerve injury, single oral 500 µg/kg", "result": "approximately 70%"}, {"measurement": "Inhibition of radioligand binding", "setting": "Ca2+ channel", "result": 19.4, "unit": "%"}, {"measurement": "Inhibition of radioligand binding (%)", "setting": "K+ channel hERG", "result": 23.6, "unit": "%"}, {"measurement": "Antagonist Effect (%)", "setting": "CB1; [3]", "result": "−1.5", "unit": "%"}, {"measurement": "Agonist Effect (%)", "setting": "CB1; [4]", "result": 30.8, "unit": "%"}, {"measurement": "Antagonist Effect (%)", "setting": "D1; [3]", "result": "−10", "unit": "%"}, {"measurement": "Agonist Effect (%)", "setting": "D1; [4]", "result": 3.3, "unit": "%"}, {"measurement": "Antagonist Effect (%)", "setting": "D2S; [3]", "result": "−11.5", "unit": "%"}, {"measurement": "Agonist Effect (%)", "setting": "D2S; [4]", "result": 17.2, "unit": "%"}, {"measurement": "Antagonist Effect (%)", "setting": "Mu (MOP); [3]", "result": 20.2, "unit": "%"}, {"measurement": "Agonist Effect (%)", "setting": "Mu (MOP); [4]", "result": 5.5, "unit": "%"}]}]}
